Test [1] deals with His6-TEV-PDGFRβ (557-1016) (Homo sapiens (Human), UniProt P09619). In words: PDGFRβ HTRF Assay. It counts as biochemical. Conditions: read-out: PDGFR HTRF IC50. In outline: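 Human PDGFRβ (557-1016) pre-incubated with compound for 30 min at RT in pH 7.5 HEPES/MgCl2/EGTA/Brij-35/DTT buffer. Reaction started with ATP and TK-biotin peptide, run 3 h at RT, then quenched with EDTA-containing Eu-cryptate antibody/streptavidin-XL665. HTRF 665/620 nm ratio read after 60 min; percent inhibition relative to DMSO and 10 μM imatinib controls.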
Sequence of His6-TEV-PDGFRβ (557-1016) (P09619 557-1016): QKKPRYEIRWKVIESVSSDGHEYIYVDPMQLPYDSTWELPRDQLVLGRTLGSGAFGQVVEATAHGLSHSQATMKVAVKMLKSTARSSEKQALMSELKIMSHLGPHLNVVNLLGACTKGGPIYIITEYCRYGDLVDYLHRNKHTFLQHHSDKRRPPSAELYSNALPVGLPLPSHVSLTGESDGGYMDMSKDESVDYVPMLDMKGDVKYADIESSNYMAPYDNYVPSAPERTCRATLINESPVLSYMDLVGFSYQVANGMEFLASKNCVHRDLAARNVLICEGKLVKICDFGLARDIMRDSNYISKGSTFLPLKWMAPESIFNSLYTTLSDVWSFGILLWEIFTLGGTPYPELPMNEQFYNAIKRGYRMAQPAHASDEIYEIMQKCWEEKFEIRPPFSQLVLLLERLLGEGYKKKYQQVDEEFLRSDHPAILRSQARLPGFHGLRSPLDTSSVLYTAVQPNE
Background: Time-resolved FRET reads energy transfer from a long-lived donor to a nearby acceptor.

The target in test [2] is Tb-labeled inactive PDGFRβ (Homo sapiens (Human), UniProt P09619). In words: PDGFRβ LanthaScreen Assay. It counts as binding. To be noted: read-out: PDGFR Lantha IC50.
Sequence of Tb-labeled inactive PDGFRβ (P09619 33-1106): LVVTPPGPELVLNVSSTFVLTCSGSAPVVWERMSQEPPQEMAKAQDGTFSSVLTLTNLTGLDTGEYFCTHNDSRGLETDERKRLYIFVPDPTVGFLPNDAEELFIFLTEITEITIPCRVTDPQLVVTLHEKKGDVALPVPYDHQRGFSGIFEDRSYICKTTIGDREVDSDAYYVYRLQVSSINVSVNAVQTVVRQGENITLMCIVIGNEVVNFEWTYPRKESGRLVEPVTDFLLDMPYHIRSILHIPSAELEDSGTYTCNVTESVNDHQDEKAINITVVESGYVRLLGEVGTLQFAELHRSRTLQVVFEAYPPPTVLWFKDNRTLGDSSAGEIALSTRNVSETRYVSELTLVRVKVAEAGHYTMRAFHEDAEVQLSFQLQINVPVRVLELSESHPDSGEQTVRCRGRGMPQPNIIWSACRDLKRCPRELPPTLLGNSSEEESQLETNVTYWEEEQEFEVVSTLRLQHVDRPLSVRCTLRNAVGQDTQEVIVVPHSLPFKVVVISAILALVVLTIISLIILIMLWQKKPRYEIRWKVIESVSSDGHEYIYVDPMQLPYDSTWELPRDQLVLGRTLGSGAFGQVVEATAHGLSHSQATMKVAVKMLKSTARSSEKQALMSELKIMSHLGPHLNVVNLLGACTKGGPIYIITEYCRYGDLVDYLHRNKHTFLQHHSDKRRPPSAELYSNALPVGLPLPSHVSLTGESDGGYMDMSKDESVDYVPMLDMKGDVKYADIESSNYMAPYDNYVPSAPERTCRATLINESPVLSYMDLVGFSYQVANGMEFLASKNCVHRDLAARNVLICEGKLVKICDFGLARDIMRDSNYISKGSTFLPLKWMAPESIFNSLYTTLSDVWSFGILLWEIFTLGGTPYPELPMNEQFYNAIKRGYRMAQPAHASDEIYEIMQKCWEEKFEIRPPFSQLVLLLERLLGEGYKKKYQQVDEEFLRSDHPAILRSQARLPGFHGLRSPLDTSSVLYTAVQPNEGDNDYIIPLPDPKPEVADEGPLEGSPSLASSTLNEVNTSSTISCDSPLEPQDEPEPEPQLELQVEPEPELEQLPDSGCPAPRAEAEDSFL
The next test concerns the target VEGFR2, unphosphorylated (Homo sapiens (Human), UniProt P35968). In words: VEGFR ADP GLO Assay. It counts as biochemical.

Sequence of VEGFR2, unphosphorylated (P35968 20-1356): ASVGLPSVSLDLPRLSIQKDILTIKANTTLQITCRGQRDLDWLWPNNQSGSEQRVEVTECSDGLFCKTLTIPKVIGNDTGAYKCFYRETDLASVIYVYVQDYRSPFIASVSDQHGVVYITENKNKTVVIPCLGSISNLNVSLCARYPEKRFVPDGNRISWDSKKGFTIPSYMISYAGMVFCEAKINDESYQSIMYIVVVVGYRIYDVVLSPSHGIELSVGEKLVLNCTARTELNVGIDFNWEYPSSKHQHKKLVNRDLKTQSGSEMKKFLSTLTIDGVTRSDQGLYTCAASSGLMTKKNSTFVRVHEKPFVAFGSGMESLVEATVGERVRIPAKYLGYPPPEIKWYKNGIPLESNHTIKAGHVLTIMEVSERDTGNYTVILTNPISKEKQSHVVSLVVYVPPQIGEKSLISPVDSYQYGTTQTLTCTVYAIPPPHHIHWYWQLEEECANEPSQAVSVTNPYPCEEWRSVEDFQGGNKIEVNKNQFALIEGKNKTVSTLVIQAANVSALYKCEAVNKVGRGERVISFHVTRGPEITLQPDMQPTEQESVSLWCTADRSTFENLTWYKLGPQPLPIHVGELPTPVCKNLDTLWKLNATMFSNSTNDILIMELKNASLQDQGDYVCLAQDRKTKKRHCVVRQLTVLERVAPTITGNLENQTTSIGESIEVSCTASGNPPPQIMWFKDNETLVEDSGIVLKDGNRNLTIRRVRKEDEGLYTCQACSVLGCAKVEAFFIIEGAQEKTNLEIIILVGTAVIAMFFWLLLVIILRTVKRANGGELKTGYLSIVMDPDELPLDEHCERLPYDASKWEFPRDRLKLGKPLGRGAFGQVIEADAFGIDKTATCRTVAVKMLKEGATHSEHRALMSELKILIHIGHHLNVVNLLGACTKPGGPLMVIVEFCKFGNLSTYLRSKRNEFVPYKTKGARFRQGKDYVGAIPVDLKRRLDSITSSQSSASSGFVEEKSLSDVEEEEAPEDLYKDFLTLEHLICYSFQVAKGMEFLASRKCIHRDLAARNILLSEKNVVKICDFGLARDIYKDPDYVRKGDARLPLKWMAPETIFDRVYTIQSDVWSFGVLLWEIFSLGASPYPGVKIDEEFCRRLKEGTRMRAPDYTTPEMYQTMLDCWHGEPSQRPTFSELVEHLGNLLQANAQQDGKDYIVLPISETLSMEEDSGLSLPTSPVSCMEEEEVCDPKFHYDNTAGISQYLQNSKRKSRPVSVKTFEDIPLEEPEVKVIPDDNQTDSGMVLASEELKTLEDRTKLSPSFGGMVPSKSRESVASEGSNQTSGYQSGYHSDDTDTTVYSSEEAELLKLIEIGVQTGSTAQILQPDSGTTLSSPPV

In general, IC50 refers to the point on the concentration scale where inhibition reaches its midpoint. For the molecule `Cc1ncc(NC(=O)OC[C@@H]2CCCN2C)cc1NC(=O)c1cnn2cc(-c3cn(C)nc3C)sc12` [Example 496, (S)-(1-methylpyrrolidin-2-yl)methyl (5-(2-(1,3-dimethyl-1H-pyrazol-4-yl)pyrazolo[5,1-b]thiazole-7-carboxamido)-6-methylpyridin-3-yl)carbamate], the IC50 was 0.3 nM in test [1]; 2.8 nM in test [2]; over 7500 nM against VEGFR2, unphosphorylated.

As for `COCCn1cc(-c2cn3ncc(C(=O)Nc4cc(NC(=O)C[C@H]5CCN(C(C)C)C5)cnc4C)c3s2)cn1` [Example 486, (R)—N-(5-(2-(1-isopropylpyrrolidin-3-yl)acetamido)-2-methylpyridin-3-yl)-2-(1-(2-methoxyethyl)-1H-pyrazol-4-yl)pyrazolo[5,1-b]thiazole-7-carboxamide], the concentration for half-maximal inhibition (IC50) is 2.6 nM in test [1]; 127 nM in test [2]; over 7500 nM against VEGFR2, unphosphorylated.

In the case of `Cc1ncc(NC(=O)CCN2CCCC2(C)C)cc1NC(=O)c1cnn2cc(-c3cnn(C)c3)sc12` [Example 42, N-(5-(3-(2,2-dimethylpyrrolidin-1-yl)propanamido)-2-methyl-pyridin-3-yl)-2-(1-methyl-1H-pyrazol-4-yl)pyrazolo[5,1-b]thiazole-7-carboxamide], the IC50 is 0.28 nM in test [1]; 3.8 nM in test [2]; over 7500 nM on VEGFR2, unphosphorylated.

Consider `Cc1ncc(NC(=O)CN2CCc3cccnc3C2)cc1NC(=O)c1cnn2cc(-c3cnn(C)c3)sc12` [Example 60, N-(5-(2-(5,6-dihydro-1,7-naphthyridin-7 (8H)-yl)acetamido)-2-methylpyridin-3-yl)-2-(1-methyl-1H-pyrazol-4-yl)pyrazolo[5,1-b]thiazole-7-carboxamide], for which the IC50 in test [1] was 1 nM; in test [2], 18.3 nM; at VEGFR2, unphosphorylated, over 7500 nM.

On to `COCCn1cc(-c2cn3ncc(C(=O)Nc4cc(NC(=O)CCN5CC(C)(C)C5)cnc4C)c3s2)cn1` [Example 93, N-(5-(3-(3,3-dimethylazetidin-1-yl)propanamido)-2-methylpyridin-3-yl)-2-(1-(2-methoxyethyl)-1H-pyrazol-4-yl)pyrazolo[5,1-b]thiazole-7-carboxamide], for which the IC50 in test [1] was 0.9 nM; in test [2] it was 29.1 nM; at VEGFR2, unphosphorylated, over 7500 nM.

On to `CC[C@H]1CN(CC(=O)Nc2cnc(C)c(NC(=O)c3cnn4cc(-c5cnn(C)c5)sc34)c2)CCO1` [Example 66, (S)—N-(5-(2-(2-ethylmorpholino)acetamido)-2-methylpyridin-3-yl)-2-(1-methyl-1H-pyrazol-4-yl)pyrazolo[5,1-b]thiazole-7-carboxamide], for which the IC50 in test [1] is 0.3 nM; in test [2], 2.6 nM; against VEGFR2, unphosphorylated, over 7500 nM.

`Cc1ncc(NC(=O)CN2CCCC23CC3)cc1NC(=O)c1cnn2cc(-c3cnn(CCO)c3)sc12` [Example 87, N-(5-(2-(4-azaspiro[2.4]heptan-4-yl)acetamido)-2-methylpyridin-3-yl)-2-(1-(2-hydroxyethyl)-1H-pyrazol-4-yl)pyrazolo[5,1-b]thiazole-7-carboxamide]: the IC50 in test [1] was 0.4 nM; in test [2] it was 3.2 nM; on VEGFR2, unphosphorylated it was over 7500 nM.

For `Cc1ncc(NC(=O)CN2Cc3ccncc3C2)cc1NC(=O)c1cnn2cc(-c3cnn(C)c3)sc12` [Example 77, N-(5-(2-(1H-pyrrolo[3,4-c]pyridin-2 (3H)-yl)acetamido)-2-methylpyridin-3-yl)-2-(1-methyl-1H-pyrazol-4-yl)pyrazolo[5,1-b]thiazole-7-carboxamide], the concentration for half-maximal inhibition (IC50) in test [1] was 1.8 nM; in test [2], 15.9 nM; at VEGFR2, unphosphorylated, over 7500 nM.

Consider `Cc1ncc(C(=O)NCCN2CCCC23CCC3)cc1NC(=O)c1cnn2cc(-c3cnn(C)c3)sc12` [Example 3, N-(5-((2-(5-azaspiro[3.4]octan-5-yl)ethyl)carbamoyl)-2-methylpyridin-3-yl)-2-(1-methyl-1H-pyrazol-4-yl)pyrazolo[5,1-b]thiazole-7-carboxamide], for which the IC50 in test [1] turned out to be 0.6 nM; in test [2] it was 4 nM; at VEGFR2, unphosphorylated, 6980 nM.

As to `Cc1ncc(C(=O)NCCN2CCCC23CC3)cc1NC(=O)c1cnn2cc(-c3cnn(C)c3)sc12` [Example 2, N-(5-((2-(4-azaspiro[2.4]heptan-4-yl)ethyl)carbamoyl)-2-methylpyridin-3-yl)-2-(1-methyl-1H-pyrazol-4-yl)pyrazolo[5,1-b]thiazole-7-carboxamide], the concentration for half-maximal inhibition (IC50) in test [1] is 0.7 nM; in test [2], 11.5 nM; against VEGFR2, unphosphorylated it was over 7500 nM.

With `Cc1ncc(NC(=O)CN2CCc3scnc3C2)cc1NC(=O)c1cnn2cc(-c3cnn(C)c3)sc12` [Example 61, N-(5-(2-(6,7-dihydrothiazolo[4,5-c]pyridin-5 (4H)-yl)acetamido)-2-methylpyridin-3-yl)-2-(1-methyl-1H-pyrazol-4-yl)pyrazolo[5,1-b]thiazole-7-carboxamide], the IC50 was 0.8 nM in test [1]; 12.3 nM in test [2]; over 7500 nM against VEGFR2, unphosphorylated.

With `Cc1ncc(NC(=O)CN2CCc3ncsc3C2)cc1NC(=O)c1cnn2cc(-c3cnn(C)c3)sc12` [Example 58, N-(5-(2-(6,7-dihydrothiazolo[5,4-c]pyridin-5 (4H)-yl)acetamido)-2-methylpyridin-3-yl)-2-(1-methyl-1H-pyrazol-4-yl)pyrazolo[5,1-b]thiazole-7-carboxamide], the IC50 in test [1] is 1 nM; in test [2], 12.5 nM; at VEGFR2, unphosphorylated it was over 7500 nM.

For the molecule `Cc1ncc(NC(=O)CNC2CCC2)cc1NC(=O)c1cnn2cc(-c3cnn4c3OCCC4)sc12` [Example 494, N-(5-(2-(cyclobutylamino)acetamido)-2-methylpyridin-3-yl)-2-(6,7-dihydro-5H-pyrazolo[5,1-b][1,3]oxazin-3-yl)pyrazolo[5,1-b]thiazole-7-carboxamide], the IC50 was 0.4 nM in test [1]; 3.9 nM in test [2]; over 7500 nM against VEGFR2, unphosphorylated.

On to `Cc1ncc(NC(=O)CN2C3CCC2COC3)cc1NC(=O)c1cnn2cc(-c3cnn(C)c3)sc12` [Example 44, N-(5-(2-(3-oxa-8-azabicyclo[3.2.1]octan-8-yl)acetamido)-2-methylpyridin-3-yl)-2-(1-methyl-1H-pyrazol-4-yl)pyrazolo[5,1-b]thiazole-7-carboxamide], for which the concentration for half-maximal inhibition (IC50) in test [1] was 1.3 nM; in test [2], 11.6 nM; against VEGFR2, unphosphorylated, over 7500 nM.

As for `Cc1ncc(NC(=O)CN2CCC3(CCO3)CC2)cc1NC(=O)c1cnn2cc(-c3cnn(C)c3)sc12` [Example 81, N-(5-(2-(1-oxa-7-azaspiro[3.5]nonan-7-yl)acetamido)-2-methylpyridin-3-yl)-2-(1-methyl-1H-pyrazol-4-yl)pyrazolo[5,1-b]thiazole-7-carboxamide], the IC50 was 2.8 nM in test [1]; 76.8 nM in test [2]; over 7500 nM against VEGFR2, unphosphorylated.

For `Cc1ncc(C(=O)NCCN2CCCC2(C)C)cc1NC(=O)c1cnn2cc(-c3ccnc(N4CCOCC4)c3)sc12` [Example 483, N-(5-((2-(2,2-dimethylpyrrolidin-1-yl)ethyl)carbamoyl)-2-methylpyridin-3-yl)-2-(2-morpholinopyridin-4-yl)pyrazolo[5,1-b]thiazole-7-carboxamide], the IC50 is 0.3 nM in test [1]; 2.1 nM in test [2]; over 7500 nM on VEGFR2, unphosphorylated.

Values taken from US20240109917A1 (ACTELION PHARMACEUTICALS LTD, priority 2020, published 2024).
